A short description of series [1]: Gravimetric Vapour Sorption (GVS). The format is physicochemical. Here is the method: Sorption isotherms were obtained using a SMS DVS Intrinsic moisture sorption analyzer, controlled by DVS Intrinsic Control software v1.0.0.30. The sample temperature was maintained at 25° C. by the instrument controls. The humidity was controlled by mixing streams of dry and wet nitrogen, with a total flow rate of 200 ml/min. The relative humidity was measured by a calibrated Rotronic probe (dynamic range of 1.0-100% RH), located near the sample. The weight change, (mass relaxation) of the sample as a function of % RH was constantly monitored by the microbalance (accuracy ±0.005 mg).
Typically 5-30 mg of sample was placed in a tared mesh stainless steel basket under ambient conditions. The sample was loaded and unloaded at 40% relative humidity (RH) and 25° C. (typical room conditions). A moisture sorption isotherm was performed as outlined below in Table 4 (2 scans giving 1 complete cycle). The standard isotherm was performed at 25° C. at 10% RH intervals over a 0-90% RH range. Data analysis was undertaken in Microsoft Excel using DVS Analysis Suite. The sample was recovered after completion of the isotherm and re-analyzed by XRPD.

The nature of series [2]: Six-week stability study (elevated humidity, 60° C., room conditions). The format is physicochemical. On the procedure: The stability to elevated humidity and air oxidation was investigated for both Form 1 and Form 2 of the Free Base. Samples of both materials were stored at 40° C./75% RH, 25° C./96% RH, 60° C. in contact with air and ambient conditions (25° C. in contact with air) for six weeks, and analyses by XRPD, HPLC and ^1H-NMR (for oxidation study samples only) were carried out weekly.

Series [3] in a line: Storage at elevated humidity. Format: physicochemical. The conditions noted are these: seven days. On the procedure: Samples were place on a glass slide and sealed in an airtight plastic container, along with an open beaker of saturated aqueous salt solution, and stored at a known regulated temperature. A saturated solution of NaCl was used to obtain a relative humidity of 75% at 40° C., whilst a saturated solution of potassium nitrate was used to provide 92% RH at 25° C.

A short description of series [4]: Solubility in solvents, slow cooling and evaporation experiments. The format is physicochemical. The note with it: MeCN/H2O, 20 volumes, 50° C. On the procedure:
4-(4-(imidazo[1,2-b]pyridazin-2-ylmethoxy)phenyl)-2,2-dimethyl-5-(pyridin-4-yl)furan-3(2H)-one (Form 2 or Form 1; ca. 10 mg per experiment) was weighed into vials, and the stated solvents were added, in increasing portions at 50° C. With each addition, the vials were allowed to shake for ˜20 minutes. Any solutions observed were allowed to cool to room temperature. Those experiments that remained as solutions were pin-holed to allow the solvent to slowly evaporate. Any suspensions observed were subjected to heat/cool cycles, between room temperature and 50° C., four hours at each condition.

The nature of series [5]: Thermodynamic aqueous solubility. The conditions noted are these: for Thermodynamic solubility: 25° C.; for solubility thermodynamic at 24 h / solubility at 24 h: 25 °C, thermodynamic from solid.
Method: The suspension was equilibrated at 25° C. for 24 hours then the pH was measured and adjusted with either HCl or NaOH if it deviated by more than 0.3 units from the target pH. The suspension was then filtered through a glass fiber C filter. […] Different volumes of the standard, diluted and undiluted sample solutions were injected.
Analysis was performed on an Agilent HP1100 series system equipped with a diode array detector and using ChemStation software. The following buffers were prepared to carry out the solubility analyses:
pH 1.2—made up by adding 85.0 mL of 0.2M HCl(aq) to 50 mL of 0.2M KCl(aq) and making up to 200 mL. pH 4.5—made up by adding 2.99 g of NaC2H3O2.3H2O to 14.0 mL of 2N AcOH(aq) and making up to 1000 mL. pH 7.4—made up adding 39.1 mL of 0.2M NaOH(aq) to 50.0 mL of a 0.2M KH2PO4 and making up to 200 mL.
Series [6] can be described thus: pKa determination (Sirius GlpKa). The note with it: 25° C. Format: physicochemical. Here is the method:
Data were collected on a Sirius G1pKa instrument with a D-PAS attachment. Measurements were made at 25° C. in aqueous solution by UV and in methanol water mixtures by potentiometry. The titration media was ionic-strength adjusted (ISA) with 0.15 M KCl (aq). The values found in the methanol water mixtures were corrected to 0% co-solvent via a Yasuda-Shedlovsky extrapolation. The data were refined using Refinement Pro software v2.2. Prediction of pKa values was made using ACD/Labs software.

A short description of series [7]: Log P determination (potentiometric titration). The format is physicochemical. The note with it: octanol/ionic-strength adjusted (ISA) water. The text has this: Data were collected by potentiometric titration on a Sirius G1pKa instrument using three ratios of octanol:ionic-strength adjusted (ISA) water to generate Log P, Log Pion, and Log D values. The data were refined using Refinement Pro software. Prediction of Log P values was made using ACD/Labs software.

Series [8] is described as follows: Stability of amorphous material at room and elevated humidity conditions. The format is physicochemical. On the procedure:
A DSC experiment was performed to assess the possibility of preparing amorphous material by melting and quench cooling. A sample of Form 1 (˜1 mg) was heated to 200° C. until it melted, then quickly cooled down to −80° C. and re-heated at 10° C./min. […] The crystalline Form 1 then melted at 184° C.
The experiment was repeated on a larger scale (batches of ˜60 mg) on the TGA instrument, and the resulting glasses were used as input materials for maturation experiments. Samples were also stored at elevated humidity conditions for re-analysis by XRPD after 24 h.

In brackets after ≈: the same amount, converted by molar mass. Entries after “also recorded” stand apart in the source; their conditions may differ. Where two headings read alike, the source gives them in different places. Marks after values point to notes of the source that are not given here.

On to `CC1(C)OC(c2ccncc2)=C(c2ccc(OCc3cn4ncccc4n3)cc2)C1=O` [Form 1, 4-(4-(imidazo[1,2-b]pyridazin-2-ylmethoxy)phenyl)-2,2-dimethyl-5-(pyridin-4-yl)furan-3(2H)-one], for which the “Form change by XRPD during GVS” value in series [1] (RH 0% to 90%) is listed as “No form change”. Further, the “GVS water uptake (% of mass)” value in series [1] (RH from 0% to 90%, 25° C.) came out at 0.9%. Moreover, the “Purity (area %)” value in series [2] (25° C./96% RH, Week 1) is given as 96.6 area %; in series [2] (25° C./96% RH, Week 2), 95.5 area %; in series [2] (25° C./96% RH, Week 3), 96.5 area %; in series [2] (25° C./96% RH, Week 4), 95.9 area %; in series [2] (25° C./96% RH, Week 5, samples run after 24 hours in solution), 91.8* area %; in series [2] (25° C./96% RH, Week 6), 95.5 area %. The “Purity (area %)” value in series [2] (40° C./75% RH, Week 1) is 96.9 area %; in series [2] (40° C./75% RH, Week 2) it was 96.3 area %; in series [2] (40° C./75% RH, Week 3) it was 96.5 area %; in series [2] (40° C./75% RH, Week 4), 95.6 area %; in series [2] (40° C./75% RH, Week 5, samples run after 24 hours in solution) it was 95.6* area %; in series [2] (40° C./75% RH, Week 6), 96.8 area %. The “Purity (area %)” value is recorded as 96.8 area % in series [2] (60° C., Week 1); 95.2 area % in series [2] (60° C., Week 2); 95.5 area % in series [2] (60° C., Week 3); 94.8 area % in series [2] (60° C., Week 4); 96.0* area % in series [2] (60° C., Week 5, samples run after 24 hours in solution); 95.9 area % in series [2] (60° C., Week 6). Also, the “Purity (area %)” value is recorded as 96.5 area % in series [2] (Room conditions, Week 1); 94.9 area % in series [2] (Room conditions, Week 2); 96.6 area % in series [2] (Room conditions, Week 3); 96.0 area % in series [2] (Room conditions, Week 4); 95.5* area % in series [2] (Room conditions, Week 5, samples run after 24 hours in solution); 95.9 area % in series [2] (Room conditions, Week 6). In addition, the “Stability to elevated humidity and air oxidation” value in series [2] (40° C./75% RH, 25° C./96% RH, 60° C. and ambient conditions, six weeks, XRPD, HPLC, 1H-NMR) is “No significant changes; also recorded: no significant degradation”. For the same molecule, in series [2] (60° C., 4 weeks), the “Changes after storage at 60° C.” value was “no significant changes”. Besides, in series [2] (60° C., six weeks), the “Changes by 1H-NMR or HPLC after storage at 60° C.” value was “no significant changes”. Moreover, the Stability to humidity entry in series [2] (elevated humidity and temperature conditions, after 6 weeks) was “No changes observed at elevated”. Further, the “Change in XRPD pattern on storage” value in series [3] (25° C./92% RH) and in series [3] (40° C./75% RH) was “no significant change in the XRPD pattern” throughout. In addition, the “Solubility (volumes)” value in series [4] was “Almost”. Also, the “pH of saturated unfiltered solution” value in series [5] (DI water) is reported as 7.67; in series [5] (pH 1.2 buffer), 1.40; in series [5] (pH 4.5 buffer), 4.67; in series [5] (pH 7.4 buffer), 7.46. Also, the Thermodynamic solubility in series [5] (DI water, 24 hours) came out at 60 µg/mL; in series [5] (pH 1.2 buffer, 24 hours), 32000 µg/mL; in series [5] (pH 4.5 buffer, 24 hours), 60 µg/mL. In addition, the thermodynamic solubility at 24 h was about 60 µg/mL (≈ 145 µM) in series [5] (deionized water, water, thermodynamic aqueous solubility, at pH 7.67 (Form 1), pH 7.23 (Form 2)) and 50 µg/mL (≈ 121 µM) in series [5] (pH 7.4 buffer, pH 7.4, aqueous buffer, Thermodynamic solubility, 24 hours).
On to `CC1(C)OC(c2ccncc2)=C(c2ccc(OCc3cn4ncccc4n3)cc2)C1=O` [Free Base, 4-(4-(imidazo[1,2-b]pyridazin-2-ylmethoxy)phenyl)-2,2-dimethyl-5-(pyridin-4-yl)furan-3(2H)-one], for which the pKa in series [6] (read-out: pKa (first of two basic centers)) amounted to 3.7; in series [6] (read-out: pKa (second of two basic centers)) it was 2.9. Besides, in series [7], the logP came to 3. Further, the solubility at 24 h was 12200 µg/mL (≈ 29600 µM) in series [5] (aqueous buffer, pH 1.2, simulated gastric fluid); 90 µg/mL (≈ 218 µM) in series [5] (aqueous buffer, pH 4.5, aqueous buffer); 50 µg/mL (≈ 121 µM) in series [5] (aqueous buffer, pH 7.4, aqueous buffer); 60 µg/mL (≈ 145 µM) in series [5] (water (unadjusted aqueous), water). The “pH of unfiltered saturated solution” value in series [5] (pH point 1.2) worked out at 1.24; in series [5] (pH point 4.5), 4.71; in series [5] (pH point 7.4) it was 7.44; in series [5] (pH point unadjusted aqueous), 6.19.
On to `CC1(C)OC(c2ccncc2)=C(c2ccc(OCc3cn4ncccc4n3)cc2)C1=O` [amorphous material, 4-(4-(imidazo[1,2-b]pyridazin-2-ylmethoxy)phenyl)-2,2-dimethyl-5-(pyridin-4-yl)furan-3(2H)-one], for which the “Form by XRPD after storage at elevated humidity” value in series [8] (elevated humidity conditions, 24 h) is on record as “All solids displayed Form 1”. For the same molecule, in series [8] (typically 25° C., 40% RH), the “Form on standing at room conditions” value is “converted to Form 1”.
